Test results as given in patent US20180055848A1 (Board of Supervisors of Louisiana State University and …, priority 2015, published 2018).
Where two headings read alike, the source gives them in different places.

How the values were obtained:
[1] = system: Differentiated human adipocytes; assay: Lipolysis assay (glycerol release) in cultured adipocytes; format: cell-based; conditions: 3 hours
Protocol: Primary human adipose tissue was obtained from patients undergoing liposuction, paniculectomy, or bariatric surgery. Tissue was processed by […]) to isolate and cryopreserve pre-adipocytes. At the time of the assay, pre-adipocytes were differentiated into adipocytes. Differentiated human adipocytes adherent to the bottom of a 96-well plate were washed and treated with media containing one of ten treatments: […] After incubation, a 50 μL aliquot was removed and combined with 50 μL glycerol reagent, in a colorimetric assay based on the amount of glycerol released during incubation with test compounds. Absorbance was measured at 540 nm, and results were calibrated against a standard curve. Eight replicates were conducted for each treatment.

[2] = system: adults; conditions: after 6 months; cited from earlier work
[3] = system: Male Sprague-Dawley rats fed a high fat diet; assay: Example 5: weight gain, body composition and metabolic chamber in rats, 4 weeks; format: in vivo, rat
Protocol: (§1) The Pennington Biomedical Research Center Animal Care and Use Committee approved the animal protocols. […] Male Sprague-Dawley rats (Harlan, Inc., Indianapolis, Ind., 8-9 weeks old) were fed a high fat diet (60% calories from fat, D12492, Research Diets, New Brunswick, N.J.) for 4 weeks. […] All treatments were administered by intraperitoneal injection twice a day. […] Body composition was measured by Nuclear Magnetic Resonance (Minispec LF90 NMR analyzer, Bruker Optics, Billerica, Mass.). Weight and food intake were recorded every 2 days. […] Total activity was measured with a Phenomaster system (TSE Systems, Chesterfield Mo.). Chambers had evenly spaced infrared beam grids along X, Y, and Z axes; the system sensed and quantified total beam breaks caused by movements of the animal.

[4] = system: Male Sprague-Dawley rats fed a high fat diet; assay: Example 6: lean and fat mass in rats, 8 weeks; format: in vivo, rat; conditions: i.p. twice a day, albuterol 0.125 mg/kg, caffeine 3.12 mg/kg
Protocol: as §1

[5] = system: lean adults and post-obese adults; conditions: 100 mg of caffeine, cited from earlier work
[6] = system: healthy adults; assay: Metabolic rate in humans (indirect calorimetry, crossover study)

CC(C)NCC(O)c1ccc(O)c(O)c1 (stereo not shown) [isoproterenol, Isoproterenol]
increase in lipolysis ([1]; Isoproterenol 1 μM positive control, p<0.001): ~90%

CCCCCCCCCCC[C@@H](C[C@@H]1OC(=O)[C@H]1CCCCCC)OC(=O)[C@H](CC(C)C)NC=O [Orlistat]
weight loss [2]: about 2.8%
weight loss attributable to fat loss [2]: 2.1%
weight loss attributable to reduction in lean tissue [2]: 0.7%

CC(C)(C)NCC(O)c1ccc(O)c(CO)c1 (stereo not shown) [albuterol, albuterol (salbutamol)]
additional lean mass gained compared to the saline control group ([3]; 4 weeks, i.p. twice a day, albuterol 0.125 mg/kg, caffeine 3.12 mg/kg, p<0.001): 16.6 g
weight gain compared to the saline control group ([3]; 4 weeks, i.p. twice a day, albuterol 0.125 mg/kg, caffeine 3.12 mg/kg, p=0.04): gained significantly more weight
energy expenditure during the dark phase ([3]; albuterol 0.125 mg/kg i.p. twice a day, p=0.07): trend towards increased energy expenditure
fat mass gained, week 8 ([4]; p=0.004, n=30): 20.1 g
lean mass gained by week 8 ([4]; p=0.03, n=30): 60.3 g

Cn1c(=O)c2c(ncn2C)n(C)c1=O [caffeine]
increase in lipolysis over buffer-treated cells ([1]; caffeine 10 μg/mL, p=0.83): exception
fat accretion ([3]; 4 weeks, i.p. twice a day, p=0.006): reduced fat accretion
increase in resting metabolic rate [5]: 3-4%
increase in resting metabolic rate ([5]; lean adults): 150 kcal/day
increase in resting metabolic rate ([5]; post-obese adults): 80 kcal/day
increased energy expenditure (the delta) ([6]; 100 mg caffeine alone, oral): 37 kcal
energy expenditure over the baseline metabolic rate ([6]; all dosages, single oral dose, p<0.02 to p<0.001, n=8): significant increases
